Among the data in patent US20220249447A1, “CF3-, OCF3-, SCF3-, and SF5-Containing Antibacterial Agents” (Purdue Research Foundation, priority 2019, published 2022) are MIC values, retold here.

The subject of assay [1] is Neisseria gonorrhea strain 181. Kind of assay: MIC against Neisseria gonorrhea strain 181. In kind it is cell-based. As to the method: (§1) Bacteria were cultured in cation-adjusted Mueller Hinton Broth (for strains in Tables 1-3) or Brain Heart Infusion broth (for Enterococcus faecium) or Tryptic Soy Broth (all other bacteria) in a 96-well plate at 37° C. for at least 20 hours. The MIC was classified as the lowest concentration where no visual growth of bacteria was observed. The minimum bactericidal concentration (MBC) was tested by spotting 4 μL from wells with no growth onto Tryptic Soy Agar (TSA) plates. Plates were incubated at 37° C. for at least 18 hours before recording the MBC.

For the next assay, the system named is S. aureus. Briefly: MIC, broth microdilution, S. aureus. In kind it is cell-based. Conditions: Staphylococcus aureus. The method, then: as §1
For orientation: Broth dilution looks for growth in wells or tubes with falling amounts of substance.

The next assay has as its system MRSA ATCC 33592. Briefly: MIC, broth microdilution, MRSA ATCC 33592. In kind it is cell-based, methicillin-resistant S. aureus. Conditions: Staphylococcus aureus. The method, then:
All MRSA isolates were acquired from BEI Resources. The remaining bacteria were purchased from the American Type Culture Collection (ATCC).
as §1

SMILES strings stand for the structures. ≈ marks a conversion by molar mass, not a printed value.

For the compound `CN(C)[C@@H]1C(O)=C(C(N)=O)C(=O)[C@@]2(O)C(O)=C3C(=O)c4c(O)cccc4[C@@](C)(O)[C@H]3C[C@@H]12` [Tetracycline, reference compound], the MIC (usually the least concentration at which growth counts as inhibited) in assay [1] was determined as 2 µg/mL (≈ 4.5 µM).
As for `O=C(Nc1nnc(-c2cccc(C(F)(F)F)c2)o1)c1ccc(SC(F)(F)F)cc1` [HSGN-253, N-(5-(3-(trifluoromethyl)phenyl)-1,3 ,4-oxadiazol-2-yl)-4-((trifluoromethyl)thio)benzamide], the figures for the MIC (against S. aureus; in the assay on MRSA ATCC 33592; in assay [1]) were 0.25 µg/mL (≈ 0.577 µM), 0.125 µg/mL (≈ 0.288 µM) and 2 µg/mL (≈ 4.62 µM), respectively.
Consider `O=C(Nc1nnc(-c2ccc(Cl)cc2)o1)c1ccc(SC(F)(F)F)cc1` [HSGN-282, N-(5-(4-chlorophenyl)-1,3,4-oxadiazol-2-yl)-4-((trifluoromethyl)thio)benzamide], for which the MIC with S. aureus and against MRSA ATCC 33592 was 0.0625 µg/mL (≈ 0.156 µM) throughout.
Take `O=S(=O)(Nc1nnc(-c2cccc(Cl)c2)o1)c1ccc(S(F)(F)(F)(F)F)cc1` [HSGN-255, N-(5-(3-chlorophenyl)-1,3,4-oxadiazol-2-yl)-4-(pentafluoro-δ6-sulfaneyl)benzenesulfonamide]: the MIC with S. aureus and in the assay on MRSA ATCC 33592 was above 64 µg/mL each time.
`O=C(Nc1nnc(-c2ccccc2)o1)c1ccc(SC(F)(F)F)cc1` [HSGN-280, N-(5-phenyl-1,3,4-oxadiazol-2-yl)-4-((trifluoromethyl)thio)benzamide]: the MIC in the assay on S. aureus and in the assay on MRSA ATCC 33592 was 1 µg/mL (≈ 2.74 µM) each time.
On to `O=C(Nc1nnc(-c2cccc(Cl)c2)o1)c1ccc(OC(F)(F)F)c([N+](=O)[O-])c1` [HSGN-262, N-(5-(3-chlorophenyl)-1,3,4-oxadiazol-2-yl)-3-nitro-4-(trifluoromethoxy)benzamide], for which the MIC against S. aureus and in the assay with MRSA ATCC 33592 was 16 µg/mL (≈ 37.3 µM) in each case.
Consider `O=C(Nc1nnc(-c2cccnc2)o1)c1ccc(SC(F)(F)F)cc1` [HSGN-206, N-(5-(pyridin-3-yl)-1,3,4-oxadiazol-2-yl)-4-((trifluoromethyl)thio)benzamide], for which the MIC against S. aureus and in the assay on MRSA ATCC 33592 was 32 µg/mL (≈ 87.4 µM) in each case.
Compound `CC[C@H]1OC(=O)[C@H](C)[C@@H](O[C@H]2C[C@@](C)(OC)[C@@H](O)[C@H](C)O2)[C@H](C)[C@@H](O[C@@H]2O[C@H](C)C[C@H](N(C)C)[C@H]2O)[C@](C)(O)C[C@@H](C)CN(C)[C@H](C)[C@@H](O)[C@]1(C)O` [Azithromycin, reference compound] registered a minimum inhibitory concentration (MIC) in assay [1] of 256 µg/mL (≈ 342 µM).
Take `O=C(Nc1nnc(-c2cccc(Cl)c2)o1)c1cccc(S(F)(F)(F)(F)F)c1` [HSGN-2112, N-(5-(3-chlorophenyl)-1,3,4-oxadiazol-2-yl)-3-(pentafluoro-λ^6-sulfaneyl)benzamide]: the MIC against S. aureus and against MRSA ATCC 33592 was 0.5 µg/mL (≈ 1.17 µM) throughout.
As for `O=C(Nc1nnc(-c2cccs2)o1)c1ccc(C(F)(F)F)s1` [HSGN-170], the MIC came out at 4 µg/mL (≈ 11.6 µM) against S. aureus and 2 µg/mL (≈ 5.79 µM) against MRSA ATCC 33592.
For `O=C(Nc1nnc(-c2cccs2)o1)c1ccc(OC(F)F)cc1` [HSGN-143, 4-(difluoromethoxy)-N-(5-(thiophen-2-yl)-1,3,4-oxadiazol-2-yl)benzamide], the MIC in the assay with S. aureus and against MRSA ATCC 33592 was 32 µg/mL (≈ 94.9 µM) in each case.
`N#Cc1cccc(-c2nnc(NC(=O)c3ccc(SC(F)(F)F)cc3)o2)c1` [HSGN-283, N-(5-(3-cyanophenyl)-1,3,4-oxadiazol-2-yl)-4-((trifluoromethyl)thio)benzamide]: the MIC with S. aureus and against MRSA ATCC 33592 was 0.0625 µg/mL (≈ 0.16 µM) in each case.
`O=C(Nc1nnn(Cc2ccccc2)n1)c1ccc(S(F)(F)(F)(F)F)cc1` [HSGN-2136, N-(2-benzyl-2H-tetrazol-5-yl)-4-(pentafluoro-λ^6-sulfaneyl)benzamide]: the MIC in the assay on S. aureus and in the assay on MRSA ATCC 33592 was above 128 µg/mL throughout.
On to `CCCc1nnc(NC(=O)c2ccc(S(F)(F)(F)(F)F)cc2)o1` [HSGN-2142, 4-(pentafluoro-λ^6-sulfaneyl)-N-(5-propyl-1,3,4-oxadiazol-2-yl)benzamide], for which the results for the MIC in the assay on S. aureus and with MRSA ATCC 33592 were 1 µg/mL (≈ 2.8 µM) and 0.5 µg/mL (≈ 1.4 µM), respectively.
For the compound `O=C(Nc1noc(-c2ccc(C(F)(F)F)cc2)n1)c1ccc(SC(F)(F)F)cc1` [HSGN-257, N-(5-(4-(trifluoromethyl)phenyl)-1,2,4-oxadiazol-3-yl)-4-((trifluoromethyl)thio)benzamide], the minimum inhibitory concentration (MIC) with S. aureus and with MRSA ATCC 33592 was above 64 µg/mL throughout.
Regarding `O=C(Nc1nnc(-c2cccs2)o1)c1cccc(C(F)(F)F)n1` [HSGN-184, N-(5-(thiophen-2-yl)-1,3,4-oxadiazol-2-yl)-6-(trifluoromethyl)picolinamide], the MIC in the assay with S. aureus and against MRSA ATCC 33592 was 16 µg/mL (≈ 47 µM) throughout.
In the case of `O=C(Nc1nnc(-c2cccs2)o1)c1ncc(C(F)(F)F)s1` [HSGN-168, N-(5-(thiophen-2-yl)-1,3,4-oxadiazol-2-yl)-5-(trifluoromethyl)thiazole-2-carboxamide], the MIC against S. aureus was 16 µg/mL (≈ 46.2 µM); in the assay on MRSA ATCC 33592, 8 µg/mL (≈ 23.1 µM).
`O=S(=O)(Nc1nnc(-c2cccc(Cl)c2)o1)c1ccc(SC(F)(F)F)cc1` [HSGN-256, N-(5-(3-chlorophenyl)-1,3,4-oxadiazol-2-yl)-4-((trifluoromethyl)thio)benzenesulfonamide]: the MIC against S. aureus and with MRSA ATCC 33592 was above 64 µg/mL throughout.
Regarding `COc1cc(Cl)cc(-c2nnc(NC(=O)c3ccc(SC(F)(F)F)cc3)o2)c1` [HSGN-266, N-(5-(3-chloro-5-methoxyphenyl)-1,3,4-oxadiazol-2-yl)-4-((trifluoromethyl)thio)benzamide], the MIC against S. aureus and against MRSA ATCC 33592 was 0.5 µg/mL (≈ 1.16 µM) in each case.
As for `COc1c(Cl)cc(-c2nnc(NC(=O)c3ccc(SC(F)(F)F)cc3)o2)cc1Cl` [HSGN-265, N-(5-(3,5-dichloro-4-methoxyphenyl)-1,3,4-oxadiazol-2-yl)-4-((trifluoromethyl)thio)benzamide], the MIC was determined as 0.0625 µg/mL (≈ 0.135 µM) with S. aureus, 0.0625 µg/mL (≈ 0.135 µM) in the assay on MRSA ATCC 33592 and 2 µg/mL (≈ 4.31 µM) in assay [1].
On to `CSc1ccc(C(=O)Nc2nnc(-c3cccs3)o2)cc1` [HSGN-251, 4-(methylthio)-N-(5-(thiophen-2-yl)-1,3,4-oxadiazol-2-yl)benzamide], for which the MIC came out at 16 µg/mL (≈ 50.4 µM) against S. aureus and 8 µg/mL (≈ 25.2 µM) against MRSA ATCC 33592.
For `Cc1nnc(NC(=O)c2ccc(S(F)(F)(F)(F)F)cc2)o1` [HSGN-2140, N-(5-methyl-1,3,4-oxadiazol-2-yl)-4-(pentafluoro-λ^6-sulfaneyl)benzamide] the same measures were 1 µg/mL (≈ 3.04 µM) and 1 µg/mL (≈ 3.04 µM).
`O=C(Nc1nnc(-c2ccc(Cl)s2)o1)c1ccc(S(F)(F)(F)(F)F)cc1` [HSGN-2113, N-(5-(5-chlorothiophen-2-yl)-1,3,4-oxadiazol-2-yl)-4-(pentafluoro-λ^6-sulfaneyl)benzamide]: the MIC against S. aureus and against MRSA ATCC 33592 was 0.25 µg/mL (≈ 0.579 µM) in each case.
Turning to `O=C(Nc1nnc(-c2cccs2)o1)c1cc(C(F)(F)F)n[nH]1` [HSGN-183, N-(5-(thiophen-2-yl)-1,3,4-oxadiazol-2-yl)-3-(trifluoromethyl)-1H-pyrazole-5-carboxamide], the MIC in the assay with S. aureus and against MRSA ATCC 33592 was above 64 µg/mL each time.
As for `O=C(Nc1nnc(-c2cccs2)o1)c1cnc(C(F)(F)F)nc1` [HSGN-190, N-(5-(thiophen-2-yl)-1,3,4-oxadiazol-2-yl)-2-(trifluoromethyl)pyrimidine-5-carboxamide], the MIC in the assay on S. aureus and with MRSA ATCC 33592 was 32 µg/mL (≈ 93.8 µM) throughout.
As for `O=C(Nc1nnc(-c2cccs2)o1)c1ccc(C(F)(F)F)cn1` [HSGN-172, N-(5-(thiophen-2-yl)-1,3,4-oxadiazol-2-yl)-5-(trifluoromethyl)picolinamide], the MIC was 64 µg/mL (≈ 188 µM) in the assay on S. aureus and 32 µg/mL (≈ 94 µM) in the assay with MRSA ATCC 33592.
